From ChEMBL document CHEMBL1201862, “PubChem BioAssay data set” (2004)
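Protocol summary: plate cells (96-well), add compound at 5 concentrations, incubate 48 h, interpolate endpoints linearly. The concentration for 50% growth inhibition is given as GI50.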 The source made the active and inactive calls. Rule as the data show it: active = GI50 up to about 1.1 µM and inactive = higher.

Experiments:
Assay in all cases: DTP human tumour cell line panel, 48 h
[1] = system: CCRF-CEM
[2] = system: Hs-578T
[3] = system: KM12
[4] = system: NCI-H23
[5] = system: T47D
[6] = system: LOX IMVI
[7] = system: DLD-1
[8] = system: MDA-N
[9] = system: SF-268
[10] = system: SK-MEL-5
[11] = system: 786-0
[12] = system: MDA-MB-435
[13] = system: CAKI-1
[14] = system: HCT-15
[15] = system: SN12C
[16] = system: NCI/ADR-RES
[17] = system: OVCAR-8
[18] = system: UACC-62
[19] = system: M19-MEL

Row | Structure (SMILES) | GI50 [1] | GI50 [2] | GI50 [3] | GI50 [4] | GI50 [5] | GI50 [6] | GI50 [7] | GI50 [8] | GI50 [9] | GI50 [10] | GI50 [11] | GI50 [12] | GI50 [13] | GI50 [14] [µM] | GI50 [15] | GI50 [16] | GI50 [17] | GI50 [18] | GI50 [19]
1 | CCN(CC)CC[n+]1ccc2c(C)c3[nH]c4ccccc4c3c(C)c2c1 | 0.204 µM (active) | 0.0405 µM (active) | 0.338 µM (active) | 0.546 µM (active) | 0.188 µM (active) | 0.689 µM (active) | 1.87 µM (inactive) | 0.675 µM (active) | 0.164 µM (active) | 0.401 µM (active) | 0.56 µM (active) | 0.635 µM (active) | 1.99 µM (inactive) | 22 | 0.285 µM (active) |  |  |  | 
2 | Cc1cc(Cl)ccc1Nc1sc(C(=O)c2cc3cc(Cl)ccc3o2)c(N)c1C#N | > 27.1 µM (inactive) | > 100 µM (inactive) | 6.15 µM (inactive) | 7.41 µM (inactive) | 16.6 µM (inactive) | > 100 µM (inactive) |  | 79.3 µM (inactive) | 5.3 µM (inactive) | 3.99 µM (inactive) | 3.83 µM (inactive) | 8.71 µM (inactive) | 25.1 µM (inactive) | 33 | 11.9 µM (inactive) | 1.82 µM (inactive) | 11.4 µM (inactive) | 6 µM (inactive) | 
3 | O=S(=O)(Cc1ccccc1)SCc1ccccc1 | 3.24 µM (inactive) |  | 32.4 µM (inactive) | 23.1 µM (inactive) |  | 16.6 µM (inactive) | 7.71 µM (inactive) |  | 36.8 µM (inactive) | 21.4 µM (inactive) | 22.7 µM (inactive) |  | > 50.9 µM (inactive) | 18.4 | 24.7 µM (inactive) |  | 15.2 µM (inactive) | 23.3 µM (inactive) | 22.2 µM (inactive)
4 | O=[N+]([O-])c1ccc(/N=N/N2CCCC2)cc1 | > 100 µM (inactive) | > 100 µM (inactive) | > 100 µM (inactive) | > 100 µM (inactive) | > 100 µM (inactive) | > 100 µM (inactive) |  | > 100 µM (inactive) | > 100 µM (inactive) | > 100 µM (inactive) | > 100 µM (inactive) | > 100 µM (inactive) | > 100 µM (inactive) | > 100 | > 100 µM (inactive) | > 100 µM (inactive) | > 100 µM (inactive) | > 100 µM (inactive) | 
5 | COC(=O)c1ccccc1C1CN=NC12Cc1ccc(C)cc1C2=O (configuration not stated) | > 100 µM (inactive) | 41.5 µM (inactive) | 37.9 µM (inactive) | 59 µM (inactive) | 29.4 µM (inactive) | 48.1 µM (inactive) |  | 27.7 µM (inactive) | > 100 µM (inactive) | 38.1 µM (inactive) | > 100 µM (inactive) | 33.3 µM (inactive) | 84.5 µM (inactive) | 56.1 | 58.6 µM (inactive) | 36.6 µM (inactive) | > 100 µM (inactive) | 68.7 µM (inactive) | 
6 | CC1(C)C[C@H](O)[C@H](O)[C@]23C(=O)O[C@H](O)[C@H]2C(C=O)=CC[C@@H]13 | > 100 µM (inactive) | > 100 µM (inactive) | > 100 µM (inactive) | > 100 µM (inactive) | 73.1 µM (inactive) | > 100 µM (inactive) |  | > 100 µM (inactive) | > 100 µM (inactive) | > 100 µM (inactive) | > 100 µM (inactive) | > 100 µM (inactive) | > 100 µM (inactive) | > 100 | > 100 µM (inactive) | > 100 µM (inactive) | > 100 µM (inactive) | 58.9 µM (inactive) | 
7 | O=C(/C=C/c1ccc(O)c(O)c1)OCCOC(=O)/C=C/c1ccc(O)c(O)c1 | 33.1 µM (inactive) | 39.4 µM (inactive) | 17.6 µM (inactive) | 29.4 µM (inactive) | 24.7 µM (inactive) | 28.6 µM (inactive) |  | 19.8 µM (inactive) | 27.7 µM (inactive) | 18.2 µM (inactive) | 42.3 µM (inactive) | 31.3 µM (inactive) | 39.4 µM (inactive) | 35.1 | 25.9 µM (inactive) | 39.8 µM (inactive) | 32.2 µM (inactive) | 18.7 µM (inactive) | 
8 | N#CC1=C(N2CCCC2)NC(=O)CC1=O | > 100 µM (inactive) | > 100 µM (inactive) | > 100 µM (inactive) | > 100 µM (inactive) | 74 µM (inactive) | > 100 µM (inactive) |  | > 100 µM (inactive) | > 100 µM (inactive) | > 100 µM (inactive) | > 100 µM (inactive) | > 100 µM (inactive) | > 100 µM (inactive) | > 100 | > 100 µM (inactive) | > 100 µM (inactive) | > 100 µM (inactive) | > 100 µM (inactive) | 
9 | CCOCN1COCN(C)C1=O | > 100 µM (inactive) |  | > 100 µM (inactive) | > 100 µM (inactive) |  | > 100 µM (inactive) | > 100 µM (inactive) |  | > 100 µM (inactive) | > 100 µM (inactive) | > 100 µM (inactive) |  | > 100 µM (inactive) | > 100 | > 100 µM (inactive) |  | > 100 µM (inactive) | > 100 µM (inactive) | > 100 µM (inactive)
10 | Cc1ccc(-c2nc(N/N=C/c3ccc(O)cc3)c3ccccc3n2)cc1 | 15.8 µM (inactive) | 35.7 µM (inactive) | 13.5 µM (inactive) | 7.31 µM (inactive) | 5.22 µM (inactive) | 13.2 µM (inactive) |  | 7.87 µM (inactive) | 18.8 µM (inactive) | 3.51 µM (inactive) | 22.8 µM (inactive) | 10.8 µM (inactive) | 10.8 µM (inactive) | 16.4 | 8.2 µM (inactive) | 20.4 µM (inactive) | 22.9 µM (inactive) | 12.3 µM (inactive) | 
11 | COc1ccc(-n2nnc(C(N)=O)c2O)cc1 | > 100 µM (inactive) | > 100 µM (inactive) | > 100 µM (inactive) | > 100 µM (inactive) | > 100 µM (inactive) | > 100 µM (inactive) |  | > 100 µM (inactive) | > 100 µM (inactive) | > 100 µM (inactive) | > 100 µM (inactive) | > 100 µM (inactive) | > 100 µM (inactive) | > 100 | > 100 µM (inactive) | > 100 µM (inactive) | > 100 µM (inactive) | > 100 µM (inactive) | 
12 | CN(C)Cc1cc(/N=N/c2ccccc2Cl)cc(CN(C)C)c1O | 25.6 µM (inactive) | 28.1 µM (inactive) | 77.6 µM (inactive) | > 100 µM (inactive) | > 100 µM (inactive) | 16.9 µM (inactive) |  | 29.2 µM (inactive) | 73.8 µM (inactive) | 18.2 µM (inactive) | 76.9 µM (inactive) | 34.4 µM (inactive) | > 100 µM (inactive) | > 100 | > 100 µM (inactive) | 63.7 µM (inactive) | 45.5 µM (inactive) | 26.2 µM (inactive) | 
13 | CCOc1ccc(C(c2c(O)c3ccccc3oc2=O)c2c(O)c3ccccc3oc2=O)cc1 | 27 µM (inactive) | 37.6 µM (inactive) | 56.9 µM (inactive) | 44.4 µM (inactive) | 41.4 µM (inactive) | 66.5 µM (inactive) |  | 60 µM (inactive) | 44.5 µM (inactive) | 44.5 µM (inactive) | 78.2 µM (inactive) | 70.3 µM (inactive) | 93.8 µM (inactive) | 65.5 | 43.8 µM (inactive) | 98.6 µM (inactive) | 43.9 µM (inactive) | 38.7 µM (inactive) | 
14 | O=S(=O)(O)c1ccc2c(/N=N/c3ccccc3Cl)c(O)ccc2c1 | > 100 µM (inactive) | > 100 µM (inactive) | > 100 µM (inactive) | > 100 µM (inactive) | > 100 µM (inactive) | > 100 µM (inactive) |  | > 100 µM (inactive) | > 100 µM (inactive) | > 100 µM (inactive) | > 100 µM (inactive) | > 100 µM (inactive) | > 100 µM (inactive) | > 100 | > 100 µM (inactive) | > 100 µM (inactive) | > 100 µM (inactive) | > 100 µM (inactive) | 
15 | CC(Oc1ccccc1Cl)C(=O)NN1C(=O)CSC1c1ccccc1 (configuration not stated) | > 100 µM (inactive) | > 100 µM (inactive) | > 100 µM (inactive) | > 100 µM (inactive) | 63.4 µM (inactive) | > 100 µM (inactive) |  | 57.8 µM (inactive) | > 100 µM (inactive) | > 100 µM (inactive) | 74.5 µM (inactive) | 75.3 µM (inactive) | > 100 µM (inactive) | > 100 | 74.6 µM (inactive) | > 100 µM (inactive) | > 100 µM (inactive) | > 100 µM (inactive) | 
16 | CCN(CC)/[N+]([O-])=N/OCC(C)O (configuration not stated) | > 100 µM (inactive) |  | > 100 µM (inactive) | > 100 µM (inactive) |  | > 100 µM (inactive) |  |  | > 100 µM (inactive) | > 100 µM (inactive) | > 100 µM (inactive) |  | > 100 µM (inactive) | > 100 | > 100 µM (inactive) |  | > 100 µM (inactive) | > 100 µM (inactive) | > 100 µM (inactive)
17 | CC(C)[C@H]1NC(=O)[C@H]2N=C(S[C@H]2C)[C@@H]2CCCN2C(=O)[C@H](Cc2ccccc2)NC(=O)[C@@H]2CSC(=N2)[C@@H](Cc2ccccc2)NC(=O)[C@@H]2CSC1=N2 | 12.3 µM (inactive) | 15.1 µM (inactive) | 12.3 µM (inactive) | 40.3 µM (inactive) | 35 µM (inactive) | 29.7 µM (inactive) |  | 30.2 µM (inactive) | 45.6 µM (inactive) | 24.4 µM (inactive) | 33.7 µM (inactive) | 13.7 µM (inactive) | > 50 µM (inactive) | 25.3 | 40.2 µM (inactive) | 19.7 µM (inactive) | 33.6 µM (inactive) | 29.6 µM (inactive) | 
